Each block holds one compound with its values, some of them ahead of it.
Key:
[1] = tested on: MT4; test: Inhibitory activity against syncytia formation in HIV-infected MT-4 cells was evaluated; format: functional, cell-based; settings: Homo sapiens
[2] = tested on: MT4; test: Cytotoxicity was evaluated against uninfected MT-4 cells; format: functional; settings: Homo sapiens
[3] = Partition coefficient (logP); format: physicochemical; settings: octanol/water
[4] = tested on: MT4; test: Inhibitory activity against syncytia formation in HIV-infected MT-4 cells was evaluated; Inactive; format: functional, cell-based, Homo sapiens
[5] = tested on: MT4; test: Inhibitory activity against syncytia formation in HIV-infected MT-4 cells was evaluated; 1-10 uM; format: functional, cell-based; settings: Homo sapiens

- logP ([3]; read-out: logP): 3.99
Compound: CCOC(=O)N(Cc1ccccc1)CC(O)CN(Cc1ccccc1)C(=O)OCC
- IC50 [4]: Not Active
- CC50 [2]: 50 µM

- logP ([3]; read-out: logP): 5.75
Compound: CC(C)COC(=O)N(Cc1ccccc1)CC(O)CN(Cc1ccccc1)C(=O)OCC(C)C
- IC50 [1]: 1 µM
- CC50 [2]: 100 µM

- logP ([3]; read-out: logP): 5.39
Compound: CC(C)(C)OC(=O)N(Cc1ccccc1)CC(O)CN(Cc1ccccc1)C(=O)OC(C)(C)C
- CC50 [2]: > 100 µM
- IC50 [5]: 1 µM

- logP ([3]; read-out: logP): 4.07
Compound: O=C(OCC1CCCCO1)N(Cc1ccccc1)CC(O)CN(Cc1ccccc1)C(=O)OCC1CCCCO1 (stereo unspecified)
- IC50 [4]: Not Active
- CC50 [2]: 50 µM

- logP ([3]; read-out: logP): 2.48
Compound: O=C(OC1CCOC1)N(Cc1ccccc1)CC(O)CN(Cc1ccccc1)C(=O)OC1CCOC1 (stereo unspecified)
- IC50 [4]: Not Active
- CC50 [2]: 50 µM

- logP ([3]; read-out: logP): 2.94
Compound: O=C(OCC1CCCO1)N(Cc1ccccc1)CC(O)CN(Cc1ccccc1)C(=O)OCC1CCCO1 (stereo unspecified)
- IC50 [4]: Not Active
- CC50 [2]: 50 µM

The next lines start with the compound.

Compound: O=C(NCc1ccccc1)N(Cc1ccccc1)CC(O)CN(Cc1ccccc1)C(=O)NCc1ccccc1
- IC50 [1]: 0.1 µM
- CC50 [2]: > 100 µM
- logP ([3]; read-out: logP): 5.12

Compound: CCCCCCCCOC(=O)N(Cc1ccccc1)CC(O)CN(Cc1ccccc1)C(=O)OCCCCCCCC
- IC50 [1]: 10 µM
- CC50 [2]: 50 µM
- logP [3]: 10.35

Compound: CC(C)(C)NC(=O)N(Cc1ccccc1)CC(O)CN(Cc1ccccc1)C(=O)NC(C)(C)C
- IC50 [1]: 1 µM
- CC50 [2]: > 100 µM
- logP ([3]; read-out: logP): 4.12

Compound: O=C(OCc1ccccc1)N(Cc1ccccc1)CC(O)CN(Cc1ccccc1)C(=O)OCc1ccccc1
- IC50 [1]: < 0.1 µM
- CC50 [2]: 10 µM
- logP ([3]; read-out: logP): 6.48

Compound: O=C(N1CCOCC1)N(Cc1ccccc1)CC(O)CN(Cc1ccccc1)C(=O)N1CCOCC1
- IC50 [4]: Not Active
- CC50 [2]: 100 µM
- logP ([3]; read-out: logP): 0.04

Compound: CN(C(=O)N(Cc1ccccc1)CC(O)CN(Cc1ccccc1)C(=O)N(C)c1ccccc1)c1ccccc1
- IC50 [1]: 1 µM
- CC50 [2]: > 100 µM
- logP ([3]; read-out: logP): 7.06
